Entries after “also recorded” stand apart in the source; their conditions may differ. Peptide text beside a SMILES is read from it. * marks the point of attachment. Cbz = O=C(OCc1ccccc1)*; CH2F = FC*
Columns and labels:
Format in all cases: cell-based, human
[1] = system: PLTs of 4° C. stored APCs; assay: PLT viability of cold stored APCs treated with apoptosis inhibitors; details: for % PLT viability (day 10): 4° C. stored APC; for % viable cells: APCs stored at 4° C., G04 150 μM, forskolin 0.75 μM
Method: (§1) APCs were collected from healthy volunteers according to the German guidelines for haemotherapy. Ten individuals donated two units of APCs collected with FENWAL AMICUS (Amicus, Fresenius Kabi, Bad Homburg, Germany) and stored in plasma or in PAS (SSP+, Macopharma, Langen, Germany) at 35% final plasma concentration at 4° C. and RT.
(§2) Appropriate concentration for the inhibitors was determined prior to experiments, by titrating different concentrations. Directly after the collection, the APCs were stored for an hour without agitation. APCs were split further into different culture bags under aseptic conditions and stored in sterile, oxygen permeable bag (Fresenius Kabi A G, Bad Homburg, Germany). APCs were treated with 150 μM RhoA inhibitor G04, 0.75 μM […] (PKA) activator forskolin or 40 μM Caspase-9 inhibitor z-LEHD-fmk. […] APCs without any additions were used as a negative control. After 2 hours of treatment at RT, all the samples except the control at RT, were stored at 4° C. under constant gentle agitation. All samples were activated with thrombin receptor-activating peptide TRAP ([…], HART Biologicals) prior to measurements.

[2] = system: PLTs from APCs; assay: Determination of apoptosis (Annexin V-FITC staining); details: for % Apoptosis (day 10): 4° C. stored APC; for % apoptotic cells: APCs stored at 4° C., forskolin 0.75 μM, z-LEHD-fmk 40 μM
Method: as §1, §2
PLTs from APCs were washed, resuspended with 1 mM CaCl2 and stained with Annexin V-FITC (Beckman Coulter) for 60 min at RT. Freshly isolated PLTs were incubated with 10 μM ionomycin (Abcam, Cambridge, UK) and used as positive control.

[3] = system: PLTs of 4° C. stored APCs; assay: Measurement of mitochondrial transmembrane potential; details: APCs stored at 4° C.
Method: as §1, §2

[4] = system: PLTs of 4° C. stored APCs; assay: Platelet aggregation (light transmission PLT aggregation assay); details: for % PLT aggregation (day 7): 4° C. stored APC
Method: as §1, §2
PLT function was analyzed by FC and light transmission PLT aggregation assay (LTA) using a 4-channel-aggregometer (Labitec, Ahrensburg, Germany). Collagen (8 μg/ml), ristocetin ([…]) (both Molab, Langenfeld, Germany) or ADP (80 μM, Nycomed, Konstanz, Germany) were used as inductors.

[5] = system: cold-stored PLTs; assay: Platelet adhesion on fibrinogen coated coverslips; details: for Number of adherent cells (day 4) / Number of adherent cells (day 7): cold-stored PLTs, TRAP; for Number of adherent cells (day 4): day 4, fibrinogen coated coverslips; for Number of adherent cells (day 7): day 7, fibrinogen coated coverslips
Method: Coverslips (Corning, New York, USA) were coated with […] of fibrinogen (Sigma Aldrich, Munich, Germany). After 4 and 7 days of storage PLTs (1×10^8 PLTs/mL) were seeded on coverslips and incubated for 1 hour at room temperature (RT) with TRAP (0.1 mM, Hart Biologicals, Hartlepool, UK). The adherent cells were fixed with 4% paraformaldehyde for 20 minutes (min) at RT. Images were captured from 5 different microscopic fields/coverslips (×100, Olympus IX73, Tokyo, Japan).

[6] = system: cold-stored PLTs; assay: Thrombin generation (calibrated automated thrombogram); details: each storage time point, vs buffer/untreated
Method: Thrombin generation was quantified performing a fluorescence based-assay using a calibrated automated thrombogram system (CAT, Stago, Maastricht, Netherlands). The fluorescence signal was acquired for 60 min with a 390-nm […] excitation/460-nm emission filter set.

[7] = system: cold-stored PLTs; assay: Clot formation (thromboelastometer); details: vs buffer/untreated
Method: The clot formation was analysed using a 6-channel thromboelastometer device (Clot Pro, Enicor, Germany) and parameters were automatically calculated by dedicated software.

[8] = system: PLTs of 4° C. stored APCs; assay: Functional analysis of cold stored APCs (all functional parameters); details: treated vs untreated
Method: PLTs (10×10^6/mL) were incubated with TRAP6 (20 μM) for 30 min at 37° C., fixed with 4% PFA for 20 min at RT. The expression of CD62P (CLBThromb/6, Beckman Coulter) and CD63 (CLBGran/12, Beckman Coulter) was determined by FC. The conformational changes of glycoproteins (GPs) IIb/IIIa complex upon activation with TRAP were detected by PAC-1-antibody (BD Bioscience) using FC. PLT function was analyzed by FC and light transmission PLT aggregation assay (LTA) using a 4-channel-aggregometer (Labitec, Ahrensburg, Germany). Collagen (8 μg/ml), ristocetin ([…]) (both Molab, Langenfeld, Germany) or ADP (80 μM, Nycomed, Konstanz, Germany) were used as inductors.

Structure (SMILES)	% PLT viability (day 10) ([1]; day 10)	% viable cells ([1]; day 7)	% viable cells ([1]; day 10, z-LEHD-fmk 40 μM)	% Apoptosis (day 10) ([2]; day 10)	% apoptotic cells ([2]; day 7)	% apoptotic cells ([2]; day 10, G04 150 μM)	mitochondrial transmembrane potential ΔΨm MFI ([3]; day 7)	mitochondrial transmembrane potential ΔΨm MFI ([3]; day 10)	% PLT aggregation (day 7) [4]	Number of adherent cells (day 4) [5]	Number of adherent cells (day 7) [5]	PLT viability / survival (in words) ([1]; cold stored APCs)	apoptosis (in words) ([2]; cold stored APCs)	PLT aggregation (in words) ([4]; cold stored APCs, day 4)	PLT adhesion, number of adherent cells (in words) ([5]; cold-stored PLTs after 4 and 7 days of storage, vs buffer/untreated)	thrombin generation (AUC, area under the curve), in words [6]	clot formation (MCF, maximum clot firmness), in words [7]	PLT functions / functional parameters (overall, in words) [8]
C=C[C@@]1(C)CC(=O)[C@]2(O)[C@@]3(C)[C@@H](O)CCC(C)(C)[C@@H]3[C@H](O)[C@H](OC(C)=O)[C@@]2(C)O1 [forskolin]	58.95%	87.1%	58.95%	33%	9.3%	33%	17.88 MFI	11.02 MFI	No significant effect	No significant effect	No significant effect							
COC(=O)CC[C@H](NC(=O)[C@H](CC(C)C)NC(=O)OCc1ccccc1)C(=O)N[C@@H](Cc1cnc[nH]1)C(=O)N[C@@H](CC(=O)OC)C(=O)CF [z-LEHD-fmk] (Cbz-LE(OMe)HD(OMe)-CH2F)	60.38%		60.38%	39%	9.85%	39.00%		6.26 MFI	No significant effect	No significant effect	No significant effect	partially restores PLT viability	decreases apoptosis	tendency of decreased PLT aggregation was observed at day 4 after the treatment, but it was not significant	no significant impact	no significant impact	no significant impact	no significant impact; also recorded: does not affect the diminished PLT function; also recorded: does not affect PLT functions

Reference: US20240365773A1, “USE OF APOPTOSIS INHIBITORS FOR COLD STORAGE OF BLOOD PLATELETS” (DRK-BLUTSPENDEDIENST BADEN-WUERTTEMBERG-HESSEN GGMBH, priority 2021, published 2024)
